ChEMBL document CHEMBL5390281
Active and inactive are the calls of the source. The rule behind the calls is not given here.

Assays:
Assay type in all cases: functional, organism-based
Mus musculus [1] = experiment: Antinociceptive activity against CFA-induced persistent inflammation model of Swiss mouse assessed as prevention in CFA-induced allodynia at 2 mg/kg, ip incubated for 40 mins by von frey test
Mus musculus [2] = experiment: Antiinflammatory activity against CFA-induced persistent inflammation model of Swiss mouse assessed as prevention in paw edema formation at 2 mg/kg, ip incubated for 40 mins by plethysmometer analysis
Mus musculus [3] = experiment: Antinociceptive activity in Swiss mouse assessed as reduction in pain like behavior of mouse in first phase at 5 mg/kg, ip pretreated for 40 min followed by formalin challenge and measured after 30 min; conditions: time 70.0 min
Mus musculus [4] = experiment: Antinociceptive activity in Swiss mouse assessed as reduction in pain like behavior of mouse in second phase at 5 mg/kg, ip pretreated for 40 min followed by formalin challenge and measured after 30 min; conditions: time 70.0 min
Mus musculus [5] = experiment: Antinociceptive activity against thermal stimulated-induced persistent inflammation model of Swiss mouse assessed as increased tail flick latency at 5 mg/kg, ip pretreated with compound for 40 mins followed by thermal induction and measured after 2 hrs by tail flick test; conditions: time 160.0 min
Mus musculus [6] = experiment: (§1) Antinociceptive activity against noxious cold stimulated-induced persistent inflammation model of Swiss mouse assessed as reduction in pain like behavior at 5 mg/kg, ip pretreated with compound for 40 min followed by noxious cold stimulation and measured after 2 hrs by cold plate test; conditions: time 160.0 min
Mus musculus [7] = experiment: Antinociceptive activity against thermal stimulated-induced persistent inflammation model of Swiss mouse assessed as increased tail flick latency at 5 mg/kg, ip pretreated with compound for 40 min followed thermal stimulation and measured after 3 days in the presence of naloxone by tail flick test; conditions: time 4360.0 min
Mus musculus [8] = experiment: as §1, with “stimulated-persistent” for “stimulated-induced persistent”, “3 days in the presence of naloxone” for “2 hrs”; conditions: time 4360.0 min

SMILES	Activity (Mus musculus [1])	Activity (Mus musculus [2])	Activity (Mus musculus [3])	Activity (Mus musculus [4])	Activity (Mus musculus [5])	Activity (Mus musculus [6])	Activity (Mus musculus [7])	Activity (Mus musculus [8])
C[C@@H]1C[C@H]2[C@@H]3CCC4=CC(=O)C=C[C@]4(C)[C@@]3(F)[C@@H](O)C[C@]2(C)[C@@]1(O)C(=O)CO	Active	Active	–	–	–	–	–	–
COc1ccc2c(c1)c(CC(=O)O)c(C)n2C(=O)c1ccc(Cl)cc1	–	–	inactive	Active	–	–	–	–
CN1CC[C@]23c4c5ccc(O)c4O[C@H]2[C@@H](O)C=C[C@H]3[C@H]1C5	–	–	Active	Active	Active	Active	inactive	inactive
